Assay results reported in patent US8822479B2, “6-cyclylmethyl-and 6-alkylmethyl-substituted pyrazolepyrimidines” (Boehringer Ingelheim International GmbH, priority 2003, dated 2014).
Where a name gives a salt, the structure may show the parent alone.

Columns and labels:
Murine PDE9A = Murine PDE9A (Mus musculus (Mouse), UniProt O70628); details: concentrations below 200 μM; cited from earlier work
human PDE9A = human PDE9A (Homo sapiens (Human), UniProt O76083); details: concentrations of up to 100 μM; cited from earlier work
Chain of human PDE9A (O76083 whole entry): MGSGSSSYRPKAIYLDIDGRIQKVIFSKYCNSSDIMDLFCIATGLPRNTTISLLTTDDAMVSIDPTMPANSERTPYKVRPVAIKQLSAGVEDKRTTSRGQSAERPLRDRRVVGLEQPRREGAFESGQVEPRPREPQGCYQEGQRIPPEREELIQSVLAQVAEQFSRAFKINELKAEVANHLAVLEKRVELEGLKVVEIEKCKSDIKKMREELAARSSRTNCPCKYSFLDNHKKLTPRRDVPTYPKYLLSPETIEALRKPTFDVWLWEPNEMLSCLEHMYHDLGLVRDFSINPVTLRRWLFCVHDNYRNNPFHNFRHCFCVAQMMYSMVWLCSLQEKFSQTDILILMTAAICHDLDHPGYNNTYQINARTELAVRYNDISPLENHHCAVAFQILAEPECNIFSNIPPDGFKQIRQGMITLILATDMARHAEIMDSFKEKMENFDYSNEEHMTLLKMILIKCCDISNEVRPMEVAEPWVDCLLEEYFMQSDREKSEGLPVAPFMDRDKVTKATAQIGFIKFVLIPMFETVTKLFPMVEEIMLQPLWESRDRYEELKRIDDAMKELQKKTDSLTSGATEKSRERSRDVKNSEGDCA

Chain of Murine PDE9A (O70628 whole entry): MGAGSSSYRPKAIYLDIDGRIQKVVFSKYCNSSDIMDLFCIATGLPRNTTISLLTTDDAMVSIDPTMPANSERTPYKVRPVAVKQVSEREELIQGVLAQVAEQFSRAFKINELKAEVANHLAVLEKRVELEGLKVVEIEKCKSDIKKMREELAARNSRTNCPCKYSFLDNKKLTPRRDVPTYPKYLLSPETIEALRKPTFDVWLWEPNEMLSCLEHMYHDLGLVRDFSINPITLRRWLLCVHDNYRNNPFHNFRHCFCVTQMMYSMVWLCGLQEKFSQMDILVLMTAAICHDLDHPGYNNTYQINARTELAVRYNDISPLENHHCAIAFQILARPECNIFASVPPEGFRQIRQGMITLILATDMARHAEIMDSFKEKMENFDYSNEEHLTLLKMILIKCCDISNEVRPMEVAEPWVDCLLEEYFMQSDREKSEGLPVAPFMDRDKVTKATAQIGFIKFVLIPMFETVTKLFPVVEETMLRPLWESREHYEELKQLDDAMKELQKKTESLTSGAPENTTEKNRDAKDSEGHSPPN

| Structure (SMILES) | melting point [°C] | other results |
| --- | --- | --- |
| Cc1ccccc1-n1ncc2c(=O)[nH]c(CC3CCCC3)nc21 (as salt: sodium) | 181 |  |
| Cc1ccncc1-n1ncc2c(=O)[nH]c(CC3CCCC3)nc21 (as salt: sodium) | 206 |  |
| CCc1ccccc1-n1ncc2c(=O)[nH]c(CC3C=CCC3)nc21 (stereo not shown) (as salt: sodium) [Example 8, 6-(2-Cyclopenten-1-ylmethyl)-1-(2-ethylphenyl)-1,5-dihydro-4H-pyrazolo[3,4-d]pyrimidin-4-one] | 146 |  |
| Cc1ccccc1-n1ncc2c(=O)[nH]c(CC3C=CCC3)nc21 (stereo not shown) (as salt: sodium) [Example 9, 6-(2-Cyclopenten-1-ylmethyl)-1-(2-methylphenyl)-1,5-dihydro-4H-pyrazolo[3,4-d]pyrimidin-4-one] | 179 |  |
| Cc1ccccc1-n1ncc2c(=O)[nH]c(CC3CCCCC3)nc21 (as salt: sodium) [Example 10, 6-Cyclohexylmethyl-1-(2-methylphenyl)-1,5-dihydro-4H-pyrazolo[3,4-d]pyrimidin-4-one] | 169 |  |
| O=c1[nH]c(CC2C=CCC2)nc2c1cnn2-c1ccccc1C(F)(F)F (stereo not shown) (as salt: sodium) [Example 14, 6-(2-Cyclopenten-1-ylmethyl)-1-[2-(trifluoromethyl)phenyl]-1,5-dihydro-4H-pyrazolo[3,4-d]pyrimidin-4-one] | 153 |  |
| O=c1[nH]c(CC2C=CCC2)nc2c1cnn2-c1ccccc1F (stereo not shown) (as salt: sodium) [Example 15, 6-(2-Cyclopenten-1-ylmethyl)-1-(2-fluorophenyl)-1,5-dihydro-4H-pyrazolo[3,4-d]pyrimidin-4-one] | 163 |  |
| O=c1[nH]c(CC2C=CCC2)nc2c1cnn2-c1ccccc1Cl (stereo not shown) (as salt: sodium) [Example 16, 6-(2-Cyclopenten-1-ylmethyl)-1-(2-chlorophenyl)-1,5-dihydro-4H-pyrazolo[3,4-d]pyrimidin-4-one] | 150 |  |
| O=c1[nH]c(CC2C=CCC2)nc2c1cnn2-c1ccccn1 (stereo not shown) (as salt: sodium) [Example 17, 6-(2-Cyclopenten-1-ylmethyl)-1-(2-pyridinyl)-1,5-dihydro-4H-pyrazolo[3,4-d]pyrimidin-4-one] | 239 |  |
| COc1ccccc1-n1ncc2c(=O)[nH]c(CC3C=CCC3)nc21 (stereo not shown) (as salt: sodium) [Example 18, 6-(2-Cyclopenten-1-ylmethyl)-1-(2-methoxyphenyl)-1,5-dihydro-4H-pyrazolo[3,4-d]pyrimidin-4-one] | 182 |  |
| CC(C)Cc1nc2c(cnn2-c2ccccc2Cl)c(=O)[nH]1 (as salt: sodium) [Example 40, 1-(2-Chlorophenyl)-6-(2-methylpropyl)-1,5-dihydro-4H-pyrazolo[3,4-d]pyrimidin-4-one] | 204 |  |
| CCC(CC)Cc1nc2c(cnn2-c2cnccc2C)c(=O)[nH]1 (as salt: sodium) [Example 41, 6-(2-Ethylbutyl)-1-(4-methylpyridin-3-yl)-1,5-dihydro-4H-pyrazolo[3,4-d]pyrimidin-4-one] | 143 |  |
| Cc1ccncc1-n1ncc2c(=O)[nH]c(CC3CCCCC3)nc21 (as salt: sodium) [Example 43, 6-Cyclohexylmethyl-1-(4-methylpyridin-3-yl)-1,5-dihydro-4H-pyrazolo[3,4-d]pyrimidin-4-one] | 206 |  |
| CCC(C)Cc1nc2c(cnn2-c2ccccc2C)c(=O)[nH]1 (racemic) (as salt: sodium) [Example 35, 6-(2-Methylbutyl)-1-(2-methylphenyl)-1,5-dihydro-4H-pyrazolo[3,4-d]pyrimidin-4-one] | 132 |  |
| Cc1ccccc1-n1ncc2c(=O)[nH]c(CC(C)C(F)(F)F)nc21 (racemic) (as salt: sodium) [Example 36, 1-(2-Methylphenyl)-6-(3,3,3-trifluoro-2-methylpropyl)-1,5-dihydro-4H-pyrazolo[3,4-d]pyrimidin-4-one] | 160 |  |
| CCC(C)Cc1nc2c(cnn2-c2cnccc2C)c(=O)[nH]1 (racemic) (as salt: sodium) [Example 39, 6-(2-Methylbutyl)-1-(4-methylpyridin-3-yl)-1,5-dihydro-4H-pyrazolo[3,4-d]pyrimidin-4-one] | 149 |  |
| CC(C)Cn1c(=O)n(C)c(=O)c2[nH]cnc21 [IBMX] |  | inhibition of murine PDE9A (Murine PDE9A): not inhibited; inhibition on the isolated enzyme (human PDE9A): no inhibition |
| CC(=O)Nc1ccc(-c2c[nH]c(=O)cn2)cc1 [SKF94120] |  | inhibition on the isolated enzyme (human PDE9A): no inhibition |
| OCCN(CCO)c1nc(N2CCCCC2)c2nc(N(CCO)CCO)nc(N3CCCCC3)c2n1 [dipyridamole] |  | inhibition on the isolated enzyme (human PDE9A): no inhibition |
| COc1ccc(C2CNC(=O)C2)cc1OC1CCCC1 (stereo not shown) [rolipram] |  | inhibition on the isolated enzyme (human PDE9A): no inhibition |
| CCOC(=O)C1=C[C@]2(CC)CCCN3CCc4c(n1c1ccccc41)[C@@H]32 [vinpocetine] |  | inhibition on the isolated enzyme (human PDE9A): no inhibition |
